Values joined by “and” are separate entries in the source; they are usually repeats but may differ in a detail not shown here. Equal entries are not always repeated. Toxic doses and inconclusive results are not listed. Rule as the data show it: active = T/C of 150% or more; inactive = T/C below 125%.
Tested on: L1210 leukemia ip in BDF1 mice, survival T/C
Assay: NCI In Vivo Anticancer Drug Screen. Data for tumor model L1210 Leukemia (intraperitoneal) in B6D2F1 (BDF1) mice
Settings: endpoint: mean survival time, higher = longer survival
How it was run: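 Antitumor effect is assessed in tumor-bearing animals. Survival in the compound arm is compared with a vehicle-dosed control arm and expressed as their quotient.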

[1] = dose: 100.0 mg/kg/injection, schedule: Q01DX009 (ip), vehicle: Klucel (hydroxypropylcellulose) (HPC)
[2] = dose: 200.0 mg/kg/injection, schedule: Q01DX009 (ip), vehicle: Klucel (hydroxypropylcellulose) (HPC)
[3] = dose: 400.0 mg/kg/injection, schedule: Q01DX009 (ip), vehicle: Klucel (hydroxypropylcellulose) (HPC)
[4] = dose: 100.0 mg/kg/injection, schedule: Q04DX002 (ip), vehicle: Klucel (hydroxypropylcellulose) (HPC)
[5] = dose: 200.0 mg/kg/injection, schedule: Q04DX002 (ip), vehicle: Klucel (hydroxypropylcellulose) (HPC)
[6] = dose: 100.0 mg/kg/injection, schedule: Q04DX003 (ip), vehicle: Klucel (hydroxypropylcellulose) (HPC)
[7] = dose: 200.0 mg/kg/injection, schedule: Q04DX003 (ip), vehicle: Klucel (hydroxypropylcellulose) (HPC)
[8] = dose: 400.0 mg/kg/injection, schedule: Q04DX002 (ip), vehicle: saline with Tween-80

Measured: T/C

CC(=O)Nc1ccc([N+](=O)[O-])c(NC(C)=O)n1
inactive: [1] 103 % of control | dose: 100.0 mg/kg/injection, schedule: Q04DX003 (ip), vehicle: saline with Tween-80 101 % of control | [2] 100 % of control | dose: 200.0 mg/kg/injection, schedule: Q04DX003 (ip), vehicle: saline with Tween-80 93 % of control | [3] 97 % of control | dose: 400.0 mg/kg/injection, schedule: Q04DX003 (ip), vehicle: saline with Tween-80 112 % of control

CCC(=O)c1ccc(N2CCCCC2)cc1
inactive: [4] 103 % of control | [5] 89 % of control

Cc1nc2ccccc2c(=O)n1NC(=O)c1cc([N+](=O)[O-])cc([N+](=O)[O-])c1
inactive: dose: 100.0 mg/kg/injection, schedule: Q01DX009 (ip), vehicle: saline with Tween-80 90 % of control | dose: 200.0 mg/kg/injection, schedule: Q01DX009 (ip), vehicle: saline with Tween-80 97 % of control | dose: 400.0 mg/kg/injection, schedule: Q01DX009 (ip), vehicle: saline with Tween-80 93 % of control

Nc1ccc(CNC(=O)COc2ccc(Cl)cc2C(=O)O)cc1
inactive: [6] 110 % of control | [7] 94 % of control | dose: 400.0 mg/kg/injection, schedule: Q04DX003 (ip), vehicle: Klucel (hydroxypropylcellulose) (HPC) 100 % of control

CCCCCCC(C)(O)CCCCOC(C)OCC (stereo not given)
inactive: dose: 50.0 mg/kg/injection, schedule: Q04DX002 (ip), vehicle: saline with Tween-80 95 % of control | dose: 100.0 mg/kg/injection, schedule: Q04DX002 (ip), vehicle: saline with Tween-80 95 % of control | dose: 200.0 mg/kg/injection, schedule: Q04DX002 (ip), vehicle: saline with Tween-80 88 % of control | [8] 95 % of control

NC(Cc1ccc(O)cc1)C(=O)N/N=C/c1ccc(N(CCCl)CCCl)cc1 (stereo not given)
inactive: dose: 25.0 mg/kg/injection, schedule: Q01DX009 (ip), vehicle: Klucel (hydroxypropylcellulose) (HPC) 101 % of control | dose: 50.0 mg/kg/injection, schedule: Q01DX009 (ip), vehicle: Klucel (hydroxypropylcellulose) (HPC) 113 % of control | [1] 106 % of control | [6] 107 % of control | [7] 102 % of control

Cc1ccc(S(=O)(=O)OC23CCC(C)(CC2)C2(C3)OCCO2)cc1
inactive: dose: 100.0 mg/kg/injection, schedule: Q04DX002 (ip), vehicle: saline 95 % of control | dose: 200.0 mg/kg/injection, schedule: Q04DX002 (ip), vehicle: saline 98 % of control | dose: 400.0 mg/kg/injection, schedule: Q04DX002 (ip), vehicle: saline 98 % of control

COc1ccc(/C=C2\N=C(c3cc(OC)c(OC)c(OC)c3)OC2=O)cc1OC
inactive: [4] 123 % of control | [5] 101 % of control | dose: 400.0 mg/kg/injection, schedule: Q04DX002 (ip), vehicle: Klucel (hydroxypropylcellulose) (HPC) 101 % of control

CCOC(=O)C1C(=O)C=C(C)C(C(=O)OCC)C1c1ccc(N(C)C)cc1 (stereo not given)
inactive: dose: 25.6 mg/kg/injection, schedule: Q04DX002 (ip), vehicle: saline with Tween-80 92 % of control | dose: 64.0 mg/kg/injection, schedule: Q04DX002 (ip), vehicle: saline with Tween-80 96 % of control | dose: 160.0 mg/kg/injection, schedule: Q04DX002 (ip), vehicle: saline with Tween-80 92 % of control | [8] 103 % of control

CN1CCC(=C(C#N)C#N)CC1
inactive: dose: 100.0 mg/kg/injection, schedule: Q04DX003 (ip), vehicle: saline 91 % of control

O=C(NO)c1cccnc1
inactive: [1] 97 % of control | [2] 102 % of control | dose: 270.0 mg/kg/injection, schedule: Q01DX009 (ip), vehicle: acetone 102 % of control | dose: 270.0 mg/kg/injection, schedule: Q01DX015 (ip), vehicle: water 121 % of control | dose: 400.0 mg/kg/injection, schedule: Q01DX001 (ip), vehicle: water 99 % of control | [3] 101 % of control | dose: 400.0 mg/kg/injection, schedule: Q01DX009 (ip), vehicle: acetone 109 % of control | dose: 600.0 mg/kg/injection, schedule: Q01DX001 (ip), vehicle: water 106 % of control | dose: 600.0 mg/kg/injection, schedule: Q01DX009 (ip), vehicle: acetone 100 % of control | dose: 800.0 mg/kg/injection, schedule: Q01DX001 (ip), vehicle: water 99 % of control | dose: 800.0 mg/kg/injection, schedule: Q01DX009 (ip), vehicle: Klucel (hydroxypropylcellulose) (HPC) 109 % of control | dose: 800.0 mg/kg/injection, schedule: Q01DX009 (ip), vehicle: acetone 103 % of control | dose: 800.0 mg/kg/injection, schedule: Q01DX015 (ip), vehicle: water 110 % of control and 117 % of control

COc1ccc(Oc2ccc(-c3ccccc3)cc2)cc1
inactive: dose: 100.0 mg/kg/injection, schedule: Q01DX001 (ip), vehicle: carboxymethylcellulose (CMC) 98 % of control | dose: 200.0 mg/kg/injection, schedule: Q01DX001 (ip), vehicle: carboxymethylcellulose (CMC) 102 % of control | dose: 400.0 mg/kg/injection, schedule: Q01DX001 (ip), vehicle: carboxymethylcellulose (CMC) 96 % of control

COc1ccccc1N=C(C)CC(C)=O
inactive: dose: 100.0 mg/kg/injection, schedule: Q01DX001 (ip), vehicle: Klucel (hydroxypropylcellulose) (HPC) 100 % of control | dose: 200.0 mg/kg/injection, schedule: Q01DX001 (ip), vehicle: Klucel (hydroxypropylcellulose) (HPC) 91 % of control | dose: 400.0 mg/kg/injection, schedule: Q01DX001 (ip), vehicle: Klucel (hydroxypropylcellulose) (HPC) 99 % of control

Cc1cc[n+]2cc3ccc4ccccc4c3c(C)c2c1
inactive: dose: 2.0 mg/kg/injection, schedule: Q01DX015 (ip), vehicle: saline 102 % of control | dose: 3.12 mg/kg/injection, schedule: Q01DX009 (ip), vehicle: acetone 106 % of control | dose: 4.0 mg/kg/injection, schedule: Q01DX015 (ip), vehicle: saline 95 % of control | dose: 6.25 mg/kg/injection, schedule: Q01DX009 (ip), vehicle: acetone 101 % of control | dose: 8.0 mg/kg/injection, schedule: Q01DX015 (ip), vehicle: saline 101 % of control | dose: 12.5 mg/kg/injection, schedule: Q04DX003 (ip), vehicle: acetone 106 % of control | dose: 16.0 mg/kg/injection, schedule: Q01DX015 (ip), vehicle: saline 118 % of control

— PubChem BioAssay AID248 (DTP/NCI, 2004)
